Results as given in US12516099B2, “Processes for generating engineered cells and compositions thereof” (Juno Therapeutics, Inc., priority 2018, dated 2026).

Key:
CD27 and CCR7 = experiment: Surface CD27 and CCR7 phenotype of T cells produced with Compound 63; format: cell-based, human; conditions: CD8+ and CD4+ T cells
Description: (§1) Thawed cells generated by the process described were assessed for a marker of apoptosis (e.g., percentage of caspase positive CAR-T cells), phenotypic profile, and ability to produce intracellular cytokines following stimulation with PMA/Ionomycin and a Golgi Inhibitor. […] Thawed cells also were stained for surface expression of CD27 and CCR7 by flow cytometry.

CD4+ and CD8+ T cells [1] = experiment: Percent viable and total live cells of T cell composition produced with Compound 63; format: cell-based, human; conditions: 1 μM Compound 63 during process
Description: (§2) CD4+ and CD8+ T cells were isolated by immunoaffinity-based enrichment from leukapheresis samples from human donor subjects. At day 1, isolated CD4+ and CD8+ T cells were mixed 1:1 and stimulated with an anti-CD3/anti-CD28 oligomeric stimulatory reagent generated as described in Example 2 in serum-free media supplemented with recombinant IL-2 (100 IU/mL), recombinant IL-7 (600 IU/mL), and recombinant IL-15 (100 IU/mL) with or without 1 μM of 2-(3-hydroxyphenyl)-9-(2-isopropylphenyl)-8-oxo-8,9-dihydro-7H-purine-6-carboxamide (Compound 63). The T cells cultured with our without Compound 63 were incubated overnight (approximately 24 hr) at 37° C., and were then transduced in serum-free culture media with our without Compound 63 ([…]) with a lentiviral vector encoding an anti-CD19 CAR. […]
(§3) The cryofrozen engineered CD4+ and CD8+ T cells were thawed, and T cells were assessed for intracellular S6 phosphorylation, a ribosomal protein and marker of mTOR inhibition, and co-stained for surface expression of CD4 or CD8 and for CCR7 and CD45RA as markers of memory subsets. pS6 expression in live CD8+ T cells by memory subsets was shown by the expression of CCR7 and CD45RA as shown in FIG. 30A.

CD4+ and CD8+ T cells [2] = experiment: Intracellular cytokines after PMA/Ionomycin and Golgi inhibitor; format: cell-based, human
Description: as §1

[3] = tested on: anti-idiotype (ID) antibody against the anti-CD19 CAR; experiment: Long-term 12 day stimulation with anti-idiotype antibody beads; format: cell-based, human; conditions: 12 days anti-ID beads
Description: To further assess the functional activity of the cells, the generated T cell compositions were stimulated long-term over 12 days with beads conjugated with an anti-idiotype (ID) antibody against the anti-CD19 CAR, and expansion and survival of the cells were monitored (FIG. 31F, left panel) and total expansion metric calculated by area under the curve (FIG. 31F, right panel).

mTOR = target: T1, mTOR (Homo sapiens, UniProt P42345); experiment: Intracellular S6 phosphorylation in engineered T cells produced with mTOR kinase inhibitor; format: cell-based; conditions: 1 μM Compound 63 during process; CD8+ memory subsets
T1 construct: endogenous in cells; host or cells: primary human CD4+ and CD8+ T cells transduced with an anti-CD19 CAR
Description: as §2, §3

CAR-T cells = experiment: Apoptosis marker (intracellular caspase) in thawed CAR-T cells; format: cell-based, human; conditions: vs cells not incubated with compound 63
Description: as §1

CC(C)c1ccccc1-n1c(=O)[nH]c2c(C(N)=O)nc(-c3cccc(O)c3)nc21 [Compound 63, 2-(3-hydroxyphenyl)-9-(2-isopropylphenyl)-8-oxo-8,9-dihydro-7H-purine-6-carboxamide]
phenotypic subset profile by CD27 and/or CCR7 (CD27 and CCR7): did not substantially alter the phenotypic subset profile of the cells
percent viable cells or total live cells (CD4+ and CD8+ T cells [1]): did not impact the percent viable cells or the total live cells
level of intracellular cytokines IL2, IFNg, or TNF (CD4+ and CD8+ T cells [2]): substantially improved
expansion and survival after long-term CAR-specific stimulation [3]: improved function of the T cells was observed following long-term CAR-specific stimulation
pS6 mean fluorescence intensity (marker of mTOR inhibition) (mTOR): decreased the mean fluorescence intensity of stimulated memory T cell subsets
intracellular caspase expression (CAR-T cells): less intracellular caspase expression
